We go through 16 molecules from ChEMBL document CHEMBL1909046, “DrugMatrix in vitro pharmacology data”.

SMILES strings stand for the structures.

In experiment [1] the target is Mitogen-activated protein kinase 1 (Homo sapiens, UniProt P28482). Description: DRUGMATRIX: Protein Serine/Threonine Kinase, ERK2 enzyme inhibition (substrate: Myelin Basic Protein). Conditions: Not Active = under 50% inhibition at 10 µM. More on the design: species or system Escherichia coli.
For experiment [2], the target named is Platelet-activating factor receptor (Homo sapiens, UniProt P25105). Briefly: biochemical. The format is tissue-based. Conditions: platelet. Also: in other assays of this panel Not Active means under 50% inhibition at 10 µM.
Experiment [3] addresses Matrix metalloproteinase-9 (Homo sapiens, UniProt P14780). Description: biochemical. The format is cell-based.
For the next experiment, the target named is T1, Adenosine receptor A1 (Homo sapiens, UniProt P30542).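 Also: radioligand binding assay at the adenosine A1 receptor, with DPCPX serving as the labelled ligand; in other assays of this panel Not Active means under 50% inhibition at 10 µM.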
T1 sequence (P30542 whole entry): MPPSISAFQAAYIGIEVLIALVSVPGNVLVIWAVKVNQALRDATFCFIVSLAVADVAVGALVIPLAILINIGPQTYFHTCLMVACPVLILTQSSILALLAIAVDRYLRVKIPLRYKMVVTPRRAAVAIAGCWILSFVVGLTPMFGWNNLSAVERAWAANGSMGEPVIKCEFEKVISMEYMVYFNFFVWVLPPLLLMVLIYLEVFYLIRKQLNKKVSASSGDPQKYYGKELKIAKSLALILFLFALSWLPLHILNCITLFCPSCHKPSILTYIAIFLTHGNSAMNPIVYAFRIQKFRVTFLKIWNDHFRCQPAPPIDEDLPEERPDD
The format is cell membranes, CHO, Membrane. The settings on record: cho.

In experiment [4] the target is T2, Angiotensin-converting enzyme (Oryctolagus cuniculus, UniProt P12822).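 Also: enzymatic inhibition of angiotensin-converting enzyme measured with FAPGG as the substrate; in other assays of this panel Not Active means under 50% inhibition at 10 µM.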
T2 sequence (P12822 whole entry): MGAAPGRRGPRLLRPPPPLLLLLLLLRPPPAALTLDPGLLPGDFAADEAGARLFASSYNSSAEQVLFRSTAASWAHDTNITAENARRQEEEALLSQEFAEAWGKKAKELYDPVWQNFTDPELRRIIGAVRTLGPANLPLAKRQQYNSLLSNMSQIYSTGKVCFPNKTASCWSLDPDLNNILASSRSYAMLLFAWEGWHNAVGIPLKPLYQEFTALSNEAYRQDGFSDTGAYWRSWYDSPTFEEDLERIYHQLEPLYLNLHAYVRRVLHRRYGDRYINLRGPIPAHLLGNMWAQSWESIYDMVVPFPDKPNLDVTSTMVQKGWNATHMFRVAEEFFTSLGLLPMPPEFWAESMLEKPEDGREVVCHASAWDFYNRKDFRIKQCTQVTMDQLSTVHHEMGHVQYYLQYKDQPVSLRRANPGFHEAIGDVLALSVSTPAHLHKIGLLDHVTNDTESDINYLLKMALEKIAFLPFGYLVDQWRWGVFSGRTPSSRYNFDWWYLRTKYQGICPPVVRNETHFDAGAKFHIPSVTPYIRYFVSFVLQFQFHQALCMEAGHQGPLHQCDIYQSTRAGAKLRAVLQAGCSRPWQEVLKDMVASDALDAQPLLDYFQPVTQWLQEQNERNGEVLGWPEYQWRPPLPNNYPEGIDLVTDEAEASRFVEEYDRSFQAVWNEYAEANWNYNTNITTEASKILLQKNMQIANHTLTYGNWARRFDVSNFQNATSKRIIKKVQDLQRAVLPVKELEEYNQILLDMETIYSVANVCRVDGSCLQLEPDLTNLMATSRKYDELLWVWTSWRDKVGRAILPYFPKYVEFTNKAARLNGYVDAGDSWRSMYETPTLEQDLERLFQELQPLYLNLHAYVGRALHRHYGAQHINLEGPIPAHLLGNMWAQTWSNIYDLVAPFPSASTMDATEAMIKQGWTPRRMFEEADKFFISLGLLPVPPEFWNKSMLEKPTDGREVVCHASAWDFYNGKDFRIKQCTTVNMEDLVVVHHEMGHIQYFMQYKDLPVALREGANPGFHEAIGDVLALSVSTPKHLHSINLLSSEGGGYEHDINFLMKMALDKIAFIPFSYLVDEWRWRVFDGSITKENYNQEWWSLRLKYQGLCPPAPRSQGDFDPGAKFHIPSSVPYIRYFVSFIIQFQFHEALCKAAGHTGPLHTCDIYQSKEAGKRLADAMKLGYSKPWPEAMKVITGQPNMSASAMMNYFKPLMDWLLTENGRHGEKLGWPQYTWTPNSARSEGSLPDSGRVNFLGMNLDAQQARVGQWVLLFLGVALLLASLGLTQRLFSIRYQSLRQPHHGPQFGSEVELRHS
The format is tissue-based, Lung.

For experiment [5], the target named is T3, C-C chemokine receptor type 4 (Homo sapiens, UniProt P51679). Also: in other assays of this panel Not Active means under 50% inhibition at 10 µM.
T3 sequence (P51679 whole entry): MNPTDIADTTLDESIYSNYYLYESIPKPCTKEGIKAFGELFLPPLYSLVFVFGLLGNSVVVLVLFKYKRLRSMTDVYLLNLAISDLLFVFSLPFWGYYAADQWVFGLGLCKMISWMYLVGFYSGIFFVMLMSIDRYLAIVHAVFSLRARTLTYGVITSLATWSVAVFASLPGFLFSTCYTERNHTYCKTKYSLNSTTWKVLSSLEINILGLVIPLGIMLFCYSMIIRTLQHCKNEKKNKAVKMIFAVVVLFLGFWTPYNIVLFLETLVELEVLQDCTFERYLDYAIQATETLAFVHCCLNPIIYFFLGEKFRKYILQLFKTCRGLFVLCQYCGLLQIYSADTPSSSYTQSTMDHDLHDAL
The format is cell membranes, Membrane. The settings on record: chem-1.

The target of experiment [6] is T4, Cysteinyl leukotriene receptor 1 (Homo sapiens, UniProt Q9Y271). Also: in other assays of this panel Not Active means under 50% inhibition at 10 µM.
T4 sequence (Q9Y271 whole entry): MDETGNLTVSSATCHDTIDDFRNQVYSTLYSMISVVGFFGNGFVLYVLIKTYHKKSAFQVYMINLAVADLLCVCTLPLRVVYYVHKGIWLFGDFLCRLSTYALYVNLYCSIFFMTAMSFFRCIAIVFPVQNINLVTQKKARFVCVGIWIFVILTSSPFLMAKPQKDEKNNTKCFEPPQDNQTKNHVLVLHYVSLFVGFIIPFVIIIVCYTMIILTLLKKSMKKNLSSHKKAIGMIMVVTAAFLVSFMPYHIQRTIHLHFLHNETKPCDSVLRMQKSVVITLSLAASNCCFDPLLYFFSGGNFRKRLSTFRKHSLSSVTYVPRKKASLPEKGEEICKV
It is filed as cell membranes, Membrane. Conditions: cho-k1.

Chain of Matrix metalloproteinase-9 (P14780 whole entry): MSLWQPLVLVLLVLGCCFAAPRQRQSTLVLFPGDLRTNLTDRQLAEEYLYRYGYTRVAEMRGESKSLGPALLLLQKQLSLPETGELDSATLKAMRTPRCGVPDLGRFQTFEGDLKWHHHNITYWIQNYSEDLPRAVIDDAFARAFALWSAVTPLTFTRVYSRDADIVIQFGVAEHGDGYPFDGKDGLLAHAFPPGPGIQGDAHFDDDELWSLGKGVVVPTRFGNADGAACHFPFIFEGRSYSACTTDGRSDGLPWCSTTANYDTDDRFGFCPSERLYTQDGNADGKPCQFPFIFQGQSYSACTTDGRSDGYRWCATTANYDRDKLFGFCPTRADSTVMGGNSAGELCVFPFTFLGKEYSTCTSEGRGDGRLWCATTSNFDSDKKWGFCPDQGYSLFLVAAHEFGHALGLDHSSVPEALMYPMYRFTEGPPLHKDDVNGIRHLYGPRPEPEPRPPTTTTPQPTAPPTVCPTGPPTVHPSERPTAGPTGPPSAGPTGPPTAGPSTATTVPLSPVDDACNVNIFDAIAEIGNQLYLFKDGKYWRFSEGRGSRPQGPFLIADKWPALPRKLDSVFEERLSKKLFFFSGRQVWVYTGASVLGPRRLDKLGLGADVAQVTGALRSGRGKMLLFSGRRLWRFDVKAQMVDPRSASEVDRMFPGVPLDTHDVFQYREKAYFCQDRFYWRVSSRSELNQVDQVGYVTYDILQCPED
Chain of Mitogen-activated protein kinase 1 (P28482 whole entry): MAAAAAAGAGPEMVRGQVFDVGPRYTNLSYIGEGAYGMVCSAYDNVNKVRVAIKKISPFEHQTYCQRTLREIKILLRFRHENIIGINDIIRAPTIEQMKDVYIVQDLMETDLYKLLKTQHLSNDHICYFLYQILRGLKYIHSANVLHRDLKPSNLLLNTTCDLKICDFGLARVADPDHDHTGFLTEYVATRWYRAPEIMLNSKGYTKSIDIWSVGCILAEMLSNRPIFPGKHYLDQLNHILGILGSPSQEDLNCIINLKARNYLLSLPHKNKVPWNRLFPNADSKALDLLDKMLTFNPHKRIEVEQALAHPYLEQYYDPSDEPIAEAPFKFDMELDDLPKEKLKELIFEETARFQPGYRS
Chain of Platelet-activating factor receptor (P25105 whole entry): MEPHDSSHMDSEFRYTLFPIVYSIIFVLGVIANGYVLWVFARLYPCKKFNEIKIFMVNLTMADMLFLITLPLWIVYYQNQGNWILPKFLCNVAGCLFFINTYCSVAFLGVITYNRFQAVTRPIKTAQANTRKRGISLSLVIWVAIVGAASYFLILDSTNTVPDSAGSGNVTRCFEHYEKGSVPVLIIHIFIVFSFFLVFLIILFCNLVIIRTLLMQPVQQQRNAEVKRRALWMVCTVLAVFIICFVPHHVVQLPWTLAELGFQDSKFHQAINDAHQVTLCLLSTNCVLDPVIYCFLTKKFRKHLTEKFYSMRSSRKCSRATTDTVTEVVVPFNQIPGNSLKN

For the molecule `Nn1nnc2ccccc21`, the half-inhibitory concentration (IC50) entry (in experiment [1]; in experiment [2]; in experiment [3]; at Adenosine receptor A1; in experiment [4]; in experiment [5]) was “Not Active” each time. The 50% inhibitory concentration (IC50) result in experiment [6] is recorded as “Not Active”.

Take `CC[C@]1(O)CC[C@H]2[C@@H]3CCC4=CCCC[C@@H]4[C@H]3CC[C@@]21C`: the IC50 result (in experiment [1]; in experiment [2]; in experiment [3]; at Adenosine receptor A1; in experiment [4]; in experiment [5]) was “Not Active” throughout. For the same molecule, in experiment [6], the IC50 entry is recorded as “Not Active”.

On to `N[C@@H](Cc1ccc(F)cc1)C(=O)O`, for which the IC50 result (in experiment [1]; in experiment [2]; in experiment [3]; against Adenosine receptor A1; in experiment [4]; in experiment [5]) was “Not Active” each time. In experiment [6], the IC50 result is “Not Active”.

`CCOC(=O)[C@H](CCc1ccccc1)N[C@@H](C)C(=O)N1Cc2ccccc2C[C@H]1C(=O)O`: the IC50 result (in experiment [1]; in experiment [2]; in experiment [3]; on Adenosine receptor A1; in experiment [5]; in experiment [6]) was “Not Active” in each case.

On to `O=C(c1ccccc1Cl)N1CCC(Cc2ccccc2)CC1`, for which the IC50 entry (in experiment [1]; in experiment [2]; in experiment [3]; against Adenosine receptor A1; in experiment [4]; in experiment [5]) was “Not Active” each time. Further, the IC50 entry in experiment [6] was “Not Active”.

Take `CCOC(=O)[C@H](CCc1ccccc1)N[C@@H](C)C(=O)N1CCC[C@H]1C(=O)O`: the IC50 result (in experiment [1]; in experiment [2]; in experiment [3]; at Adenosine receptor A1; in experiment [5]; in experiment [6]) was “Not Active” each time.

As to `Clc1cc2c(cc1Cl)Oc1cc(Cl)c(Cl)cc1O2` [2,3,7,8-TETRACHLORODIBENZO-P-DIOXIN], the IC50 result (in experiment [1]; in experiment [2]; in experiment [3]; against Adenosine receptor A1; in experiment [4]; in experiment [5]) was “Not Active” each time. Further, the IC50 entry in experiment [6] was “Not Active”.

In the case of `C=C1/C(=C\C=C2/CCC[C@]3(C)[C@@H]([C@H](C)CCCC(C)C)CC[C@@H]23)C[C@@H](O)C[C@@H]1O` [ALFACALCIDOL], the IC50 entry (in experiment [1]; in experiment [2]; in experiment [3]; against Adenosine receptor A1; in experiment [4]; in experiment [5]) was “Not Active” in each case. Also, the concentration for half-maximal inhibition (IC50) result in experiment [6] is “Not Active”.

As to `CCCCCC[C@H]1C(=O)O[C@H](C)[C@H](NC(=O)c2cccc(NC=O)c2O)C(=O)O[C@@H](C)[C@@H]1OC(=O)CC(C)C` [ANTIMYCIN A], the IC50 in experiment [1] (read-out: IC50) was 2120 nM; in experiment [2], “Not Active”; in experiment [3], “Not Active”; at Adenosine receptor A1 it was “Not Active”; in experiment [4] it was “Not Active”; in experiment [5], “Not Active”. Besides, the IC50 result in experiment [6] is “Not Active”.

Turning to `C[C@@H]1CC[C@H]2[C@@H](C)C(=O)O[C@@H]3O[C@@]4(C)CC[C@@H]1[C@]32OO4` [ARTEMISININ], the IC50 entry (in experiment [1]; in experiment [2]; in experiment [3]; against Adenosine receptor A1; in experiment [4]; in experiment [5]) was “Not Active” each time. For the same molecule, the concentration for half-maximal inhibition (IC50) entry in experiment [6] is listed as “Not Active”.

In the case of `CO[C@H]1[C@@H](O)[C@H](N)[C@@H](O[C@H]2O[C@H]([C@H](C)N)CC[C@H]2N)[C@H](O)[C@@H]1N(C)C(=O)CN` [ASTROMICIN], the IC50 entry (in experiment [1]; in experiment [2]; in experiment [3]; against Adenosine receptor A1; in experiment [4]; in experiment [5]) was “Not Active” in each case. Further, in experiment [6], the IC50 entry is given as “Not Active”.

For `[N-]=[N+]=CC(=O)OC[C@H](N)C(=O)O` [AZASERINE], the IC50 result (in experiment [1]; in experiment [2]; in experiment [3]; at Adenosine receptor A1; in experiment [4]; in experiment [5]) was “Not Active” throughout. Moreover, the IC50 entry in experiment [6] is listed as “Not Active”.

On to `CC[C@H]1OC(=O)[C@H](C)[C@@H](O[C@H]2C[C@@](C)(OC)[C@@H](O)[C@H](C)O2)[C@H](C)[C@@H](O[C@@H]2O[C@H](C)C[C@H](N(C)C)[C@H]2O)[C@](C)(O)C[C@@H](C)CN(C)[C@H](C)[C@@H](O)[C@]1(C)O` [AZITHROMYCIN], for which the IC50 entry (in experiment [1]; in experiment [2]; in experiment [3]; against Adenosine receptor A1; in experiment [4]; in experiment [5]) was “Not Active” each time. The IC50 entry in experiment [6] is on record as “Not Active”.

`CC(C)(C)c1ccc(S(=O)(=O)/C=C/C#N)cc1` [BAY-11-7085]: the IC50 result (in experiment [1]; in experiment [2]; in experiment [3]; at Adenosine receptor A1; in experiment [4]; in experiment [5]) was “Not Active” throughout. For the same molecule, in experiment [6], the IC50 result is on record as “Not Active”.

Take `Cc1c(N(C)CS(=O)(=O)[O-])c(=O)n(-c2ccccc2)n1C.[Na+]` [DIPYRONE SODIUM]: the IC50 entry (in experiment [2]; in experiment [3]; against Adenosine receptor A1; in experiment [4]; in experiment [5]; in experiment [6]) was “Not Active” in each case.

In the case of `Cc1cnc(C(=O)NCCc2ccc(S(=O)(=O)NC(=O)NC3CCCCC3)cc2)cn1` [GLIPIZIDE], the half-inhibitory concentration (IC50) result (in experiment [2]; in experiment [3]; against Adenosine receptor A1; in experiment [4]; in experiment [5]; in experiment [6]) was “Not Active” each time.

The term IC50 denotes the concentration that gives 50% inhibition.
